PubChem BioAssay (NCI)
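Grown in 96-well plates, cells were treated for 48 hours with each compound at five concentrations. Insufficient inhibition: endpoint recorded as highest concentration tested. Abbreviation: GI50, concentration required for 50% inhibition of growth. TGI: concentration producing complete growth inhibition.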

How the values were obtained:
Test in all cases: NCI anticancer screen, dose series, 48 h
[1] = test system: HS 578T breast
[2] = test system: RPMI-8226 leukemia
[3] = test system: TK-10 renal
[4] = test system: BT-549 breast
[5] = test system: A549 NSCLC
[6] = test system: HL-60(TB) leukemia
[7] = test system: SK-MEL-5 melanoma
[8] = test system: SF-268 CNS
[9] = test system: K-562 leukemia
[10] = test system: NCI-H460 lung
[11] = test system: IGROV1 ovarian
[12] = test system: UO-31 renal
[13] = test system: SK-OV-3 ovarian
[14] = test system: EKVX NSCLC
[15] = test system: SK-MEL-2 melanoma
[16] = test system: MCF7 breast
[17] = test system: U251 CNS
[18] = test system: HOP-92 NSCLC
[19] = test system: SF-539 CNS
[20] = test system: T-47D breast
[21] = test system: HCT-116 colon
[22] = test system: CAKI-1 renal
[23] = test system: COLO 205 colon
[24] = test system: DU-145 prostate
[25] = test system: MOLT-4 leukemia
[26] = test system: KM12 colon
[27] = test system: CCRF-CEM leukemia
[28] = test system: SR leukemia
[29] = test system: SW-620 colon
[30] = test system: UACC-62 melanoma
[31] = test system: SK-MEL-28 melanoma
[32] = test system: NCI-H23 lung
[33] = test system: HOP-62 NSCLC
[34] = test system: SN12C renal
[35] = test system: NCI-H522 lung
[36] = test system: HT29 colon
[37] = test system: OVCAR-3 ovarian
[38] = test system: RXF 393 renal
[39] = test system: NCI-H226 lung
[40] = test system: M14 melanoma
[41] = test system: MALME-3M melanoma
[42] = test system: MDA-MB-231 breast
[43] = test system: SNB-75 CNS
[44] = test system: NCI/ADR-RES ovarian
[45] = test system: OVCAR-5 ovarian
[46] = test system: SNB-19 CNS
[47] = test system: SF-295 CNS
[48] = test system: PC-3 prostate
[49] = test system: LOX IMVI melanoma
[50] = test system: A498 renal
[51] = test system: HCT-15 colon
[52] = test system: ACHN renal
[53] = test system: OVCAR-4 ovarian
[54] = test system: HCC-2998 colon
[55] = test system: OVCAR-8 ovarian
[56] = test system: UACC-257 melanoma
[57] = test system: 786-0 renal

## COc1ccc(C(=O)c2cc(C)c(OC)c(C)c2)c(OC)c1OC(=O)C(Cl)Cl
[1]
  GI50: 29.4 nM
  TGI: 73400 nM
[2]
  GI50: 41.6 nM
  TGI: 27800 nM
[3]
  GI50: 17200 nM
  TGI: > 100000 nM
[4]
  GI50: 29.3 nM
  TGI: 1700 nM
[5]
  GI50: 361 nM
  TGI: > 100000 nM
[6]
  GI50: 25.1 nM
  TGI: 71.9 nM
[7]
  GI50: 52.1 nM
  TGI: 326 nM
[8]
  GI50: 198 nM
  TGI: > 100000 nM
[9]
  GI50: 33.6 nM
  TGI: > 100000 nM
[10]
  GI50: 62.9 nM
  TGI: 3270 nM
[11]
  GI50: 464 nM
  TGI: > 100000 nM
[12]
  GI50: 65.8 nM
  TGI: > 50500 nM
[13]
  GI50: 163 nM
  TGI: > 100000 nM
[14]
  GI50: 321 nM
  TGI: > 100000 nM
[15]
  GI50: 132 nM
  TGI: > 100000 nM
[16]
  GI50: 200 nM
  TGI: > 100000 nM
[17]
  GI50: 46.8 nM
  TGI: > 100000 nM
[18]
  GI50: 216 nM
  TGI: > 92900 nM
[19]
  GI50: 23.8 nM
  TGI: 70.2 nM
[20]
  GI50: 6370 nM
  TGI: > 100000 nM
[21]
  GI50: 97.6 nM
  TGI: > 100000 nM
[22]
  GI50: 338 nM
  TGI: > 100000 nM
[23]
  GI50: 6740 nM
  TGI: 32400 nM
[24]
  GI50: 37.7 nM
  TGI: 4800 nM
[25]
  GI50: 43.6 nM
  TGI: > 100000 nM
[26]
  GI50: 36.2 nM
  TGI: > 100000 nM
[27]
  GI50: 38.6 nM
  TGI: > 100000 nM
[28]
  GI50: 18.1 nM
  TGI: > 100000 nM
[29]
  GI50: 37.7 nM
  TGI: > 100000 nM
[30]
  GI50: 657 nM
  TGI: > 100000 nM
[31]
  GI50: 63.2 nM
  TGI: > 100000 nM
[32]
  GI50: 68.1 nM
  TGI: > 100000 nM
[33]
  GI50: 221 nM
  TGI: > 100000 nM
[34]
  GI50: 95.6 nM
  TGI: > 100000 nM
[35]
  GI50: 28.6 nM
  TGI: 1200 nM
[36]
  GI50: 3440 nM
  TGI: > 49800 nM
[37]
  GI50: 35.3 nM
[38]
  GI50: 257 nM
  TGI: > 100000 nM
[39]
  GI50: 2410 nM
  TGI: 7030 nM
[40]
  GI50: 22.9 nM
  TGI: > 100000 nM
[41]
  GI50: 71.4 nM
  TGI: > 100000 nM
[42]
  GI50: 75 nM
  TGI: > 100000 nM
[43]
  GI50: 31 nM
  TGI: > 100000 nM
[44]
  GI50: 32.4 nM
  TGI: > 100000 nM
[45]
  GI50: 5510 nM
  TGI: > 100000 nM
[46]
  GI50: 43.2 nM
  TGI: > 100000 nM
[47]
  GI50: 164 nM
  TGI: > 25100 nM
[48]
  GI50: 43.6 nM
  TGI: > 100000 nM
[49]
  GI50: 45.5 nM
  TGI: > 100000 nM
[50]
  GI50: 1740 nM
  TGI: 5890 nM
[51]
  GI50: 33.9 nM
  TGI: > 100000 nM
[52]
  GI50: 55.4 nM
  TGI: > 100000 nM
[53]
  GI50: 422 nM
  TGI: > 100000 nM
[54]
  GI50: 178 nM
  TGI: > 23600 nM
[55]
  GI50: 45.6 nM
  TGI: > 100000 nM
[56]
  GI50: 25600 nM
  TGI: > 100000 nM
[57]
  GI50: 396 nM
  TGI: > 100000 nM
